Assay results taken from ChEMBL document CHEMBL3137667, “[Drug-induced liver injury; fourteenth updated edition of the bibliographic database of liver injuries and related drugs]” (Gastroenterol Clin Biol, 2004).

Columns and labels:
[1] = Highest frequency of moderate liver toxicity observed during clinical trials, expressed as a percentage. [column '% BIOL' in source]; conditions: human
[2] = Highest frequency of acute liver toxicity observed during clinical trials, expressed as a percentage. [column '% AIGUE' in source]; conditions: human
[3] = human, serum
[4] = human, serum; remark: listed apart in the source
[5] = human
[6] = human; remark: listed apart in the source
[7] = human; remark: listed apart in the source
[8] = human, serum, 4383 h
[9] = human; remark: listed apart in the source
[10] = human; remark: listed apart in the source
[11] = human; remark: listed apart in the source
[12] = human; remark: listed apart in the source
[13] = human; remark: listed apart in the source
[14] = human; remark: listed apart in the source
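Throughout, for Hepatotoxicity (association with vascular disease): count of indexed literature references reporting vascular liver injury in humans, e.g. peliosis hepatitis, hepatic veno-occlusive disease or Budd-Chiari syndrome.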
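Throughout, for Hepatotoxicity (benign tumour): value is a count of indexed literature references citing a benign tumour confirmed by histopathology.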
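Throughout, for Hepatotoxicity (choleostasis): human cholestatic liver injury, shown by histopathology or by peak ALT or AST elevation over alkaline phosphatase ratio below 2, value counts indexed literature reports.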
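Throughout, for Hepatotoxicity (chronic liver disease): chronic liver injury confirmed by histopathology or persistently raised serum aminotransferase activity beyond 6 months, value given as the count of indexed literature references.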
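Throughout, for Hepatotoxicity (cirrhosis): value is a count of indexed literature references reporting cirrhosis confirmed by histopathology.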
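Throughout, for Hepatotoxicity (cytolytic): human cytolytic liver injury, shown by histopathology or by a ratio above 5 of peak ALT or AST elevation to alkaline phosphatase elevation, value counts indexed references.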
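Throughout, for Hepatotoxicity (granulomatous hepatitis): value is a count of indexed literature references reporting granulomatous liver disease confirmed by histopathology.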
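Throughout, for Hepatotoxicity (malignant tumour): malignant tumour confirmed by histopathology, value gives the count of indexed literature references reporting it.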
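Throughout, for Hepatotoxicity (severe hepatitis): human clinical data: severe hepatitis, meaning potentially life-threatening liver failure or clinically observed cases, the value counts how many indexed literature references report it.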
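Throughout, for Hepatotoxicity (steatosis): steatosis confirmed by histopathology, value is the count of indexed references.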

SMILES	Hepatotoxicity (moderate) [1] [%]	Hepatotoxicity (acute) [2] [%]	Hepatotoxicity (moderate) [3]	Hepatotoxicity (acute) [4]	Hepatotoxicity (cytolytic) [5]	Hepatotoxicity (choleostasis) [6]	Hepatotoxicity (severe hepatitis) [7]	Hepatotoxicity (chronic liver disease) [8]	Hepatotoxicity (cirrhosis) [9]	Hepatotoxicity (granulomatous hepatitis) [10]	Hepatotoxicity (association with vascular disease) [11]	Hepatotoxicity (steatosis) [12]	Hepatotoxicity (malignant tumour) [13]	Hepatotoxicity (benign tumour) [14]
NCCNC(=O)c1ccc(Cl)cn1 [LAZABEMIDE]	0.3	0	1	0	0	0	0	0	0	0	0	0	0	0
Cc1oc(=O)oc1COC(=O)[C@@H]1N2C(=O)[C@@H](NC(=O)[C@H](N)c3ccccc3)[C@H]2SC1(C)C [LENAMPICILLIN]	22	0	9	0	0	0	0	0	0	0	0	0	0	0
O=C(CCCN1CCC(C(=O)c2ccc(F)cc2)CC1)c1ccc(F)cc1 [LENPERONE]	0	0	2	0	0	0	0	0	0	0	0	0	0	0
CCNC(=O)[C@@H]1CCCN1C(=O)[C@H](CCCNC(=N)N)NC(=O)[C@H](CC(C)C)NC(=O)[C@@H](CC(C)C)NC(=O)[C@H](Cc1ccc(O)cc1)NC(=O)[C@H](CO)NC(=O)[C@H](Cc1c[nH]c2ccccc12)NC(=O)[C@H](Cc1c[nH]cn1)NC(=O)[C@@H]1CCC(=O)N1 [LEUPROLIDE]	2.4	0	3	0	0	0	0	0	0	0	0	0	0	0
Clc1cccc(C(c2ccc3[nH]cnc3c2)n2ccnc2)c1 (stereo not given) [LIAROZOLE]	2.9	0	1	0	0	0	0	0	0	0	0	0	0	0
CC(C)(C)c1ccc(CCC(O)COc2ccc(C(=O)O)cc2)cc1 (stereo not given) [LIFIBROL]	3.9	0	1	0	0	0	0	0	0	0	0	0	0	0
CCC[C@@H]1C[C@@H](C(=O)N[C@@H]([C@H]2O[C@H](SC)[C@H](O)[C@@H](O)[C@H]2O)[C@@H](C)O)N(C)C1 [LINCOMYCIN]	0	0	2	0	0	0	0	0	0	0	0	0	0	0
O=C(O)c1nn(Cc2ccc(Cl)cc2Cl)c2ccccc12 [LONIDAMINE]	6.4	0	4	0	0	0	0	0	0	0	0	0	0	0
Cc1cccc(C)c1OCC(=O)N[C@@H](Cc1ccccc1)[C@@H](O)C[C@H](Cc1ccccc1)NC(=O)[C@H](C(C)C)N1CCCNC1=O [LOPINAVIR]	0	8	1	2	2	0	0	0	0	0	0	0	0	0
CC(C(=O)O)c1ccc(CC2CCCC2=O)cc1 (stereo not given) [LOXOPROFEN]	0	0	0	1	0	0	1	0	0	0	0	0	0	0
C#C[C@]1(O)CC[C@H]2[C@@H]3CCC4=CCCC[C@@H]4[C@H]3CC[C@@]21C [LYNESTRENOL]	0	0	0	3	0	3	0	0	0	0	0	0	0	0
CC(NN)c1ccccc1 (stereo not given) [MEBANAZINE]	9	0	1	0	0	0	0	0	0	0	0	0	0	0
CCC(C)C(C)(COC(N)=O)COC(N)=O (stereo not given) [MEBUTAMATE]	0	0	0	1	0	1	0	0	0	0	0	0	0	0
CO[C@H]1Cc2c(O)cc(O)cc2O[C@@H]1c1ccc(O)c(O)c1 [MECIADANOL]	34.8	0	1	0	0	0	0	0	0	0	0	0	0	0
Cc1ccc(Cl)c(Nc2ccccc2C(=O)O)c1Cl [MECLOFENAMIC ACID]	0	0	2	0	0	0	0	0	0	0	0	0	0	0
